Assays:
ZEAMA Sileno [1] = assay: Tank-mix post-emergence crop damage, greenhouse, visual assessment; format: in vivo, maize; parameters: key to Reduction [Difference]: % points: herbicide damage without safener − damage with safener; details: for HER effect + SAF / Reduction [%] / Reduction [Difference]: Final; for HER effect: no safener, Final assessment
Protocol: (§1) Seeds of crops (spring wheat, TRZAS; spring barley, HORVS; maize, ZEAMA) were placed in sandy loam soil in peat pots, covered with soil and cultivated in a greenhouse under good growth conditions. Two to three weeks after sowing, the test plants were treated at the 1 to 3-leaf stage. The herbicide/safener active compound combinations according to the invention, formulated as wettable powders or emulsion concentrates, and, in parallel tests, the correspondingly formulated individual active compounds were sprayed onto the green parts of the plants in various dosages using an amount of water of 300 l/ha (converted).
(§2) The pots were returned under good growing conditions in a glasshouse and a visual assessment of herbicidal effects was made at intervals from 1 to 3 weeks after herbicide application (DAT=days after treatment). Assessment was on a percentage basis in comparison with untreated control plants (0%=no injury, 100%=complete kill).
(§3) Reduction[Difference]=herbicide damage without safener−herbicide damage with safener Reduction[%]=(Reduction[Difference]*100)/herbicide damage without safener
a) Plant Species, Variety: ZEAMA Sileno, Safener (SAF): Isoxadifen-Ethyl

TRZAS Triso = assay: Safener seed treatment, pre-emergence herbicide, crop damage; format: in vivo, spring wheat; parameters: key to Reduction [Difference]: % crop damage without safener minus % damage with safener; details: HER 15 g a.i./ha pre-emergence; for Reduction [%] / Reduction [Difference]: isoxadifen-ethyl 0.25 g a.i./kg seed; for HER effect + SAF: isoxadifen-ethyl seed treatment 0.25 g a.i./kg seed; for HER effect: no safener
Protocol: (§4) For the safener seed treatment, sufficient seeds of the respective crops (spring wheat, TRZAS; spring barley, HORVS; maize, ZEAMA) were weighed into screw top glass bottles approximately twice the volume of the seeds.
(§5) The specified safeners, formulated as wettable powder (WP) were weighed out so that the specified rates (g a.i./kg seed) would be obtained, dissolved in water (1 ml water per 10 g of seeds), and added to the seeds to produce a slurry.
(§6) The bottles were capped and then placed in an overhead shaker (set at medium speed for ca. 60 minutes) so that the seeds were evenly coated with the slurry. The bottles were uncapped and the seeds were either placed on paper and dried for an interval of 3-4 hours prior to sowing, or directly sown. Seeds were placed in sandy loam soil in pots of a diameter of 7-8 cm, and covered with soil.
(§7) Pre-emergence application of the specified herbicides was done subsequently, on two sets of plants: a) seed treatment with safener, as described above
(§8) The herbicides were formulated as WP and was sprayed onto the soil surface as an aqueous suspension at an equivalent water application rate of 300 l/ha.
(§9) After application, the test plants were kept in the greenhouse under good growth conditions. At intervals up to 4 weeks after application (=28 days after treatment; DAT), % crop damage observed on the treated plants was scored visually in comparison to control plants that had not received any safener or herbicide treatment.
(§10) Values in the table below are mean values of at least 2 replicates.
Reduction[Difference]=herbicide damage without safener−herbicide damage with safener Reduction[%]=(Reduction[Difference]*100)/herbicide damage without safener a) Plant Species, Variety: TRZAS Triso, Safener (SAF): Isoxadifen-Ethyl

HORVS Montoya = assay: as above; format: in vivo, spring barley; parameters: key to Reduction [Difference]: % crop damage without safener minus % damage with safener; details: HER 15 g a.i./ha pre-emergence; for Reduction [%] / Reduction [Difference]: isoxadifen-ethyl 0.25 g a.i./kg seed; for HER effect + SAF: isoxadifen-ethyl seed treatment 0.25 g a.i./kg seed; for HER effect: no safener
Protocol: as §4, §5, §6, §7, §8, §9, §10
Reduction[Difference]=herbicide damage without safener−herbicide damage with safener Reduction[%]=(Reduction[Difference]*100)/herbicide damage without safener b) Plant Species, Variety: HORVS Montoya, Safener (SAF): Isoxadifen-Ethyl

ZEAMA Sileno [2] = assay: as above; format: in vivo, maize; parameters: key to Reduction [Difference]: % crop damage without safener minus % damage with safener; details: HER 40 g a.i./ha pre-emergence, 14 DAT
Protocol: as §4, §5, §6, §7, §8, §9, §10
Reduction[Difference]=herbicide damage without safener−herbicide damage with safener Reduction[%]=(Reduction[Difference]*100)/herbicide damage without safener […]
c) Plant Species, Variety: ZEAMA Sileno, Safener (SAF): Isoxadifen-Ethyl

ZEAMA Abraxas = assay: Tank-mix post-emergence crop damage, greenhouse, visual assessment; format: in vivo, maize; parameters: key to Reduction [Difference]: % injury reduction: damage without minus with safener (0–100% scale); details: for HER effect + SAF / Reduction [%] / Reduction [Difference]: Final; for HER effect: no safener, Final assessment
Protocol: as §1, §2, §3
b) Plant Species, Variety: ZEAMA Abraxas, Safener (SAF): Isoxadifen-Ethyl

[3] = HER 8 g a.i./ha + isoxadifen-ethyl 50 g a.i./ha
[4] = HER 8 g a.i./ha, isoxadifen-ethyl 50 g a.i./ha
[5] = HER 32 g a.i./ha + isoxadifen-ethyl 100 g a.i./ha
[6] = HER 32 g a.i./ha, isoxadifen-ethyl 100 g a.i./ha
[7] = isoxadifen-ethyl 0.25 g a.i./kg seed

| Structure (SMILES) | Reduction [%] (TRZAS Triso; 11 DAT (Interim)) | Reduction [Difference] (TRZAS Triso; 11 DAT (Interim)) | HER effect + SAF (TRZAS Triso; 11 DAT (Interim)) [%] | HER effect (TRZAS Triso; 11 DAT (Interim)) [%] | Reduction [%] (HORVS Montoya; 11 DAT (Interim)) | Reduction [Difference] (HORVS Montoya; 11 DAT (Interim)) | Reduction [%] (HORVS Montoya; 21 DAT (Final)) | Reduction [Difference] (HORVS Montoya; 21 DAT (Final)) | HER effect + SAF (HORVS Montoya; 11 DAT (Interim)) [%] | HER effect + SAF (HORVS Montoya; 21 DAT (Final)) [%] | HER effect (HORVS Montoya; 11 DAT (Interim)) [%] | HER effect (HORVS Montoya; 21 DAT (Final)) [%] | further results |
| --- | --- | --- | --- | --- | --- | --- | --- | --- | --- | --- | --- | --- | --- |
| COC(=O)C1C=CC(NC(=O)C2(C(F)(F)F)CC(c3cccc(F)c3)=NO2)C1 (stereo not drawn) [Example 1.18] | 67 | 30 | 15 | 45 | 50 | 20 | 88 | 35 | 20 | 5 | 40 | 40 | HER effect + SAF (ZEAMA Sileno [1]; [3]): 25%; Reduction [%] (ZEAMA Sileno [1]; [4]): 73%; Reduction [Difference] (ZEAMA Sileno [1]; [4]): 69; HER effect (ZEAMA Sileno [1]; HER 8 g a.i./ha): 94%; HER effect + SAF (ZEAMA Sileno [1]; [5]): 20%; Reduction [%] (ZEAMA Sileno [1]; [6]): 79%; Reduction [Difference] (ZEAMA Sileno [1]; [6]): 77; HER effect (ZEAMA Sileno [1]; HER 32 g a.i./ha): 97%; Reduction [%] (ZEAMA Sileno [2]; [7]): 63%; Reduction [Difference] (ZEAMA Sileno [2]; [7]): 25; HER effect + SAF (ZEAMA Sileno [2]; isoxadifen-ethyl seed treatment 0.25 g a.i./kg seed): 15%; HER effect (ZEAMA Sileno [2]; no safener): 40% |
| CSCCOC(=O)C1C=CC(NC(=O)C2(C(F)(F)F)CC(c3cc(F)cc(F)c3)=NO2)C1 (stereo not drawn) [Example 1.7] | 56 | 25 | 20 | 45 | 50 | 25 | 83 | 25 | 25 | 5 | 50 | 30 | – |
| C=CC1(C(=O)NC2C=C(C(=O)OCC#N)OC2)CC(c2cc(F)cc(F)c2)=NO1 (stereo not drawn) [Example 1.91] | – | – | – | – | – | – | – | – | – | – | – | – | Reduction [%] (TRZAS Triso; 21 DAT (Final)): 75%; Reduction [Difference] (TRZAS Triso; 21 DAT (Final)): 30; HER effect + SAF (TRZAS Triso; 21 DAT (Final)): 10%; HER effect (TRZAS Triso; 21 DAT (Final)): 40% |
| C=CC1(C(=O)NC2C=CC(C(=O)O)C2)CC(c2cc(F)cc(F)c2)=NO1 (stereo not drawn) [Example 1.58] | – | – | – | – | – | – | – | – | – | – | – | – | HER effect + SAF (ZEAMA Abraxas; [3]): 17%; Reduction [%] (ZEAMA Abraxas; [4]): 73%; Reduction [Difference] (ZEAMA Abraxas; [4]): 45; HER effect (ZEAMA Abraxas; HER 8 g a.i./ha): 62%; HER effect + SAF (ZEAMA Abraxas; [5]): 15%; Reduction [%] (ZEAMA Abraxas; [6]): 84%; Reduction [Difference] (ZEAMA Abraxas; [6]): 80; HER effect (ZEAMA Abraxas; HER 32 g a.i./ha): 95% |

— patent US20230217926A1, “SELECTIVE HERBICIDES BASED ON SUBSTITUTED ISOXAZOLIN CARBOXAMIDES AND ISOXADIFEN-ETHYL” (BAYER AKTIENGESELLSCHAFT, priority 2020, published 2023)
